Experimental data taken from patent US20030013635A1, “Method for the treatment of depression by inhibition of NAALADase” (priority 2001, published 2003).

Test system: socially defeated mice
Experiment: social defeat (SD) model in the mouse, social interaction with a non-aggressive intruder
Assay type: in vivo
Text: N-acetylaspartylglutamate (NAAG) is the most abundant peptide neurotransmitter in the brain. Glu release is increased during stress. Inhibiting glutamatergic tone by inhibiting NAALADase proves an antidepressant in the social defeat (SD) model. The SD model is a form of conditioned contextual fear, in which once-defeated mice retain a long-lasting over-generalized fear and avoidance of all mice (even non-aggressive ones) and lose normal species-appropriate territorial defense.
The SD model is a form of conditioned contextual fear, in which once-defeated mice retain a long-lasting over-generalized fear and avoidance of all mice (even non-aggressive ones), losing normal species-appropriate territoriality [Lumley et al., 1999] and displaying immobility in a swim test—a behavior associated with models of depression [Hebert et al., 1998].
Thus, GPI 5232 increased normal territoriality and other species-appropriate social behavior. In sum, this drug diminished behaviors associated with conditioned contextual fear. It is also believed to reduce depression.

Compound: O=C(O)CCC(CP(=O)(O)Cc1c(F)c(F)c(F)c(F)c1F)C(=O)O (stereo not drawn) [GPI 5232]
- behaviors associated with conditioned contextual fear (SD model): markedly diminished
- normal territoriality and other species-appropriate social behavior (SD model): increased
- display of territorial behavior in the form of runback re-approaches (acute injection, social interaction with a non-aggressive intruder (FIG. 1)): significantly increased
